These results are taken from US10752588B2 (The Broad Institute, Inc., priority 2014, dated 2020).

SMILES strings stand for the structures. pEC50, pIC50: −log10 of the molar value. Read-outs that look alike come from different tables or passages of the source.

The target of data set [1] is T1, human D2R/β-arrestin (Homo sapiens (Human), UniProt P14416). The data set is described as follows: Gi/cAMP agonist assay (Lance Ultra cAMP, Forskolin). The data set is classed as cell-based. The settings on record: CHO-K1 cell line expressing human D2R/β-arrestin. Put shortly:
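Cells were plated and incubated before compounds were pin-transferred and incubated for 10 min at 37 °C. Forskolin was then added to stimulate cAMP. cAMP was detected by Lance Ultra TR-FRET using Eu-cAMP tracer and ULight-anti-cAMP antibody.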

Data set [2] addresses T1, human D2R/β-arrestin. Conditions: read-out: β-arrestin Antagonist.
Data set [3] deals with T1, human D2R/β-arrestin. Description: β-Arrestin agonist assay (PathHunter). The data set is classed as cell-based. The settings on record: CHO-K1 cell line expressing human D2R/β-arrestin. Put shortly: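 After compound incubation, detection reagent (Buffer:Emerald II:Galactor-Star, 19:5:1) added and luminescence or fluorescence read.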
The target of data set [4] is T1, human D2R/β-arrestin. Conditions: read-out: cAMP Antagonist.
Data set [5] deals with T1, human D2R/β-arrestin. Description: cell-based. Conditions: β-arrestin Antagonist, CHO-K1 cell line expressing human D2R/β-arrestin; quinpirole used as agonist.
The target in data set [6] is T1, human D2R/β-arrestin. The data set is described as follows: cell-based. Conditions: cAMP Antagonist.
Data set [7] in a line: Microsomal stability, mouse.
Where [8] appears, read: CHO-K1 cell line expressing human D2R/β-arrestin, quinpirole used as agonist.

T1 sequence (P14416 whole entry): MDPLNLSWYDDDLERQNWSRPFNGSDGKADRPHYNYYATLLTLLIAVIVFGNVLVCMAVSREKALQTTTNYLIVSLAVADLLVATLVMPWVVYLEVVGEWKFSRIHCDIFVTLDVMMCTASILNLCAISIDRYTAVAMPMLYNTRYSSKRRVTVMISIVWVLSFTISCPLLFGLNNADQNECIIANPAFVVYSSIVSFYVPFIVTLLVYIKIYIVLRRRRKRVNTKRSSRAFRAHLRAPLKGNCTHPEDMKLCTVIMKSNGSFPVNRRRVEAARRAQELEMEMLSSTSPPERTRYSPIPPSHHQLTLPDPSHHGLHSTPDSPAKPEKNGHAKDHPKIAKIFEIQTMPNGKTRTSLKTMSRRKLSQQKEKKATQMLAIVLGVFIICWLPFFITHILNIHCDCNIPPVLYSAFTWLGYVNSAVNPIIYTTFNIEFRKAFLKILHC

For orientation: pEC50 means the negative decadic logarithm of the EC50, by convention in mol/L. A higher pEC50 goes with a small EC50. Take `O=C(NC(c1ccc(Cl)cc1)c1ccccc1F)C1CCN(CCOc2ccccc2)CC1` (single isomer, unassigned) [Compound 40b, N((4-chlorophenyl)(2-fluorophenyl)methyl)-1-(2-phenoxyethyl) piperidine-4-carboxamide]: the pEC50 is 5.00 to 6.00 at human D2R/β-arrestin [1] and under 4.52 at human D2R/β-arrestin [3]. Also, the values for the pIC50 on human D2R/β-arrestin [2] and at human D2R/β-arrestin [4] were 5.00 to 6.00 and under 4.52, respectively.
Consider `O=C(NC(c1ccc(Cl)cc1)c1ccccc1F)C1CCN(CCOc2ccccc2F)CC1` (single isomer, unassigned) [Compound 96a, N-((4-chlorophenyl)(2-fluorophenyl)methyl)-1-(2-(2-fluorophenoxy)ethyl) piperidine-4-carboxamide], for which the figures for the negative-log EC50 (pEC50) on human D2R/β-arrestin [1] and at human D2R/β-arrestin [3] were 5.00 to 6.00 and under 4.52, respectively. Besides, the pIC50 at human D2R/β-arrestin [2] was 5.00 to 6.00; on human D2R/β-arrestin [4], under 4.52.
Take `O=C(NC(c1ccc(Cl)cc1)c1ccccn1)C1CCN(CCOc2ccccc2F)CC1` (single isomer, unassigned) [Compound 3b]: the pEC50 on human D2R/β-arrestin [1] is over 7.00; at human D2R/β-arrestin [3], under 4.52. In addition, the pIC50 at human D2R/β-arrestin [2] was 6.00 to 7.00; on human D2R/β-arrestin [4], under 4.52.
Regarding `O=C(NC(c1ccc(Cl)cc1)c1ccccn1)C1CCN(CCOc2cccc(F)c2)CC1` (single isomer, unassigned) [Compound 4b], the negative-log EC50 (pEC50) on human D2R/β-arrestin [1] and on human D2R/β-arrestin [3] was under 4.52 in each case. Further, the pIC50 on human D2R/β-arrestin [2] was 5.00 to 6.00; on human D2R/β-arrestin [4], 6.00 to 7.00.
Turning to `Fc1ccccc1OCCN1CCC(CNC(c2ccc3c(c2)OCO3)c2ccccn2)CC1` (single isomer, unassigned) [Compound 139b, 1-(benzo[d][1,3]dioxol-5-yl)-N-((1-(2-(2-fluorophenoxy)ethyl)piperidin-4-yl)methyl)-1-(pyridin-2-yl)methanamine], the figures for the pEC50 on human D2R/β-arrestin [1] and at human D2R/β-arrestin [3] were 6.00 to 7.00 and under 4.52, respectively. Besides, the pIC50 at human D2R/β-arrestin [5] is 5.00 to 6.00; at human D2R/β-arrestin [4] (setting [8]) it was 6.00 to 7.00.
In the case of `O=C(NC(c1ccc(Cl)cc1)c1ccccn1)C1CCN(CCOc2ccccc2F)CC1` (single isomer, unassigned) [Compound 3a], the negative logarithm of the EC50 (pEC50) on human D2R/β-arrestin [1] and at human D2R/β-arrestin [3] was under 4.52 each time. Moreover, the pIC50 at human D2R/β-arrestin [2] and on human D2R/β-arrestin [4] was 6.00 to 7.00 throughout.
As to `CC(C)N(CC1CCN(CCOc2ccccc2)CC1)C(c1ccc(Cl)cc1)c1ccccn1` (single isomer, unassigned) [Compound 103b, N-((4-chlorophenyl)(pyridin-2-yl)methyl)-N-((1-(2-phenoxyethyl)piperidin-4-yl)methyl)propan-2-amine], the results for the pEC50 at human D2R/β-arrestin [1] and on human D2R/β-arrestin [3] were over 7.00 and 6.00 to 7.00, respectively. In addition, the figures for the pIC50 against human D2R/β-arrestin [6] and at human D2R/β-arrestin [2] were under 4.52 and 6.00 to 7.00, respectively.
Regarding `O=C(NC(c1ccc(Cl)cc1)c1ccccn1)C1CCN(CCOc2cccc(F)c2)CC1` (single isomer, unassigned) [Compound 4a], the negative-log EC50 (pEC50) was 6.00 to 7.00 on human D2R/β-arrestin [1] and 5.00 to 6.00 at human D2R/β-arrestin [3]. Besides, the figures for the pIC50 at human D2R/β-arrestin [2] and at human D2R/β-arrestin [4] were 5.00 to 6.00 and under 4.52, respectively.
For the molecule `O=C(NC(c1ccc(F)cc1)c1ccccn1)C1CCN(CCOc2ccccc2C(F)(F)F)CC1` (single isomer, unassigned) [Compound 52a], the pEC50 at human D2R/β-arrestin [1] and on human D2R/β-arrestin [3] was under 4.52 throughout. Further, the pIC50 was 6.00 to 7.00 at human D2R/β-arrestin [2] and over 7.00 at human D2R/β-arrestin [4].
Consider `O=C(NC(c1ccc(Cl)cc1)c1ccccn1)C1CCN(CCOc2ccc3cccnc3c2)CC1` (single isomer, unassigned) [Compound 16b], for which the pEC50 at human D2R/β-arrestin [1] is 5.00 to 6.00; on human D2R/β-arrestin [3], under 4.52. The pIC50 at human D2R/β-arrestin [2] and at human D2R/β-arrestin [4] was under 4.52 in each case.
Take `O=C(NC(c1ccc(F)cc1)c1ccccn1)C1CCN(CCOc2ccccc2F)CC1` (single isomer, unassigned) [Compound 54b, 1-(2-(2-fluorophenoxy)ethyl)-N-((4-fluorophenyl)(pyridin-2-yl)methyl) piperidine-4-carboxamide]: the pEC50 at human D2R/β-arrestin [1] was 6.00 to 7.00; at human D2R/β-arrestin [3], under 4.52. Besides, the pIC50 on human D2R/β-arrestin [2] was 5.00 to 6.00; on human D2R/β-arrestin [4], under 4.52.
For `COc1cccc(C(c2ccccn2)N(C)CC2CCN(CCOc3ccccc3)CC2)c1` (single isomer, unassigned) [Compound 76b, 1-(3-methoxyphenyl)-N-methyl-N-((1-(2-phenoxyethyl)piperidin-4-yl)methyl)-1-(pyridin-2-yl)methanamine], the negative logarithm of the EC50 (pEC50) was 5.00 to 6.00 on human D2R/β-arrestin [1] and under 4.52 at human D2R/β-arrestin [3]. Also, the pIC50 at human D2R/β-arrestin [6] (setting [8]) and on human D2R/β-arrestin [2] (setting [8]) was 5.00 to 6.00 each time.
Turning to `Clc1ccc(C(c2ccccn2)N2CCC3(CCN(CCOc4ccccc4)CC3)C2)cc1` (single isomer, unassigned) [Compound 105b, 2-((4-chlorophenyl)(pyridin-2-yl)methyl)-8-(2-phenoxyethyl)-2,8-diazaspiro[4.5]decane], the values for the negative-log EC50 (pEC50) on human D2R/β-arrestin [1] and on human D2R/β-arrestin [3] were 6.00 to 7.00 and 5.00 to 6.00, respectively. Further, the pIC50 at human D2R/β-arrestin [5] is 5.00 to 6.00; on human D2R/β-arrestin [4] (setting [8]), under 4.52.
Turning to `O=C(NC(c1ccc2c(c1)OC(F)(F)O2)c1ccccn1)C1CCN(CCOc2ccc(F)cc2F)CC1` (single isomer, unassigned) [Compound 130b, N-((2,2-difluorobenzo[d][1,3]dioxol-5-yl)(pyridin-2-yl)methyl)-1-(2-(2,4-difluorophenoxy)ethyl)piperidine-4-carboxamide], the values for the pEC50 at human D2R/β-arrestin [1] and on human D2R/β-arrestin [3] were over 7.00 and 6.00 to 7.00, respectively. For the same molecule, the pIC50 is under 4.52 at human D2R/β-arrestin [6] (setting [8]) and 5.00 to 6.00 at human D2R/β-arrestin [2] (setting [8]).
Consider `CC1(C(=O)NC(c2ccc(Cl)cc2)c2ccccn2)CCN(CCOc2ccccc2)CC1` (single isomer, unassigned) [Compound 144b, N-((4-chlorophenyl)(pyridin-2-yl)methyl)-4-methyl-1-(2-phenoxyethyl)piperidine-4-carboxamide], for which the pEC50 at human D2R/β-arrestin [1] was over 7.00; on human D2R/β-arrestin [3] it was 6.00 to 7.00. Also, the pIC50 was 6.00 to 7.00 on human D2R/β-arrestin [5] and under 4.52 at human D2R/β-arrestin [4] (setting [8]).
Consider `Fc1ccccc1C(NCC1CCN(CCOc2ccccc2)CC1)c1ccc(Cl)cc1` (single isomer, unassigned) [Compound 81b, 1-(4-chlorophenyl)-1-(2-fluorophenyl)-N-((1-(2-phenoxyethyl)piperidin-4-yl)methyl)methanamine], for which the negative-log EC50 (pEC50) at human D2R/β-arrestin [1] and on human D2R/β-arrestin [3] was under 4.52 throughout. For the same molecule, the pIC50 on human D2R/β-arrestin [5] is 5.00 to 6.00; on human D2R/β-arrestin [4] (setting [8]), 6.00 to 7.00.
As for `O=C(NC(c1cccc(OC(F)(F)F)c1)c1ccccn1)C1CCN(CCOc2ccccc2F)CC1` (single isomer, unassigned) [Compound 93b, 1-(2-(2-fluorophenoxy)ethyl)-N-(pyridin-2-yl(3-(trifluoromethoxy)phenyl)methyl)piperidine-4-carboxamide], the values for the pEC50 at human D2R/β-arrestin [1] and on human D2R/β-arrestin [3] were 6.00 to 7.00 and under 4.52, respectively. The pIC50 was under 4.52 at human D2R/β-arrestin [6] (setting [8]) and 5.00 to 6.00 on human D2R/β-arrestin [2] (setting [8]). The “Microsomal Stability: % remaining after 60 minutes” value in data set [7] was “m19%”.
`COc1cccc(C(c2ccccn2)N(C)CC2CCN(CCOc3ccccc3F)CC2)c1` (single isomer, unassigned) [Compound 77b, N-((1-(2-(2-fluorophenoxy)ethyl)piperidin-4-yl)methyl)-1-(3-methoxyphenyl)-N-methyl-1-(pyridin-2-yl)methanamine]: the negative logarithm of the EC50 (pEC50) on human D2R/β-arrestin [1] and at human D2R/β-arrestin [3] was under 4.52 each time. Moreover, the pIC50 was 5.00 to 6.00 on human D2R/β-arrestin [5] and 6.00 to 7.00 on human D2R/β-arrestin [4] (setting [8]).
